Source: ChEMBL document CHEMBL4699583 (J Med Chem, 2020)
Activity calls are given as the source filed them. No cut-off for these calls is given here.

Assays:
[1] = target: Delta-type opioid receptor (Homo sapiens) (UniProt P41143); assay: Antagonist activity at human delta opioid receptor at 2 uM by cell based cAMP assay; format: functional
[2] = target: Muscarinic acetylcholine receptor M3 (Homo sapiens) (UniProt P20309); assay: Antagonist activity at human muscarinic acetylcholine receptor M3 at 2 uM by cell based calcium flux assay; format: functional
[3] = target: Alpha-2A adrenergic receptor (Homo sapiens) (UniProt P08913); assay: Agonist activity at human alpha-2A adrenergic receptor at 2 uM by cell based cAMP assay; format: functional
[4] = target: D(2) dopamine receptor (Homo sapiens) (UniProt P14416); assay: Agonist activity at human dopamine D2S receptor at 2 uM by cell based cAMP assay; format: functional
[5] = target: D(1A) dopamine receptor (Homo sapiens) (UniProt P21728); assay: Agonist activity at human dopamine D1 receptor at 2 uM by cell based cAMP assay; format: functional
[6] = target: Acetylcholinesterase (Homo sapiens) (UniProt P22303); assay: Inhibition of human AChE at 2 uM
[7] = target: Insulin receptor (Homo sapiens) (UniProt P06213); assay: Inhibition of human INSR at 2 uM
[8] = target: Sodium channel protein type 5 subunit alpha (Homo sapiens, UniProt Q14524); assay: Inhibition of human Nav1.5 at 2 uM by cell-based assay
[9] = tested on: DNA; assay: Induction of Escherichia coli relaxed pBR322 DNA intercalation in presence of calf-thymus DNA topoisomerase I at 1 to 25 uM incubated for 15 mins by ethidium bromide dye based agarose gel electrophoresis method; format: nucleic-acid assay; conditions: dose 1-25 µM
[10] = target: Delta-type opioid receptor (Homo sapiens) (UniProt P41143); assay: Agonist activity at human delta opioid receptor at 2 uM by cell based cAMP assay; format: functional
[11] = target: Cholecystokinin receptor type A (Homo sapiens) (UniProt P32238); assay: Agonist activity at human cholecystokinin typeA receptor at 2 uM by cell based calcium flux assay; format: functional
[12] = target: Prostaglandin G/H synthase 2 (Homo sapiens) (UniProt P35354); assay: Inhibition of human COX2 at 2 uM
[13] = target: Beta-2 adrenergic receptor (Homo sapiens) (UniProt P07550); assay: Agonist activity at human beta-2 adrenergic receptor at 2 uM by cell based cAMP assay; format: functional
[14] = target: Cholecystokinin receptor type A (Homo sapiens) (UniProt P32238); assay: Antagonist activity at human cholecystokinin typeA receptor at 2 uM by cell based calcium flux assay; format: functional
[15] = species on record: Homo sapiens; assay: Inhibition of human 5HT3A channel at 2 uM by cell based calcium flux assay
[16] = target: GABA-A receptor; alpha-1/beta-2/gamma-2 (Homo sapiens) (UniProt P14867+P47870+P18507); assay: Activation of human GABA alpha1beta2gamma2 receptor at 2 uM by cell based assay
[17] = target: Alpha-1A adrenergic receptor (Homo sapiens) (UniProt P35348); assay: Agonist activity at human ADRA1A at 2 uM by cell based calcium flux assay; format: functional
[18] = Drug uptake in C57B6/J mouse brain at 10 mg/kg, ip administered as single dose measured after 60 to 360 mins by UPLC/MS TQD analysis; format: ADME, organism-based; conditions: in vivo, time 60-360 min
[19] = target: Muscarinic acetylcholine receptor M3 (Homo sapiens) (UniProt P20309); assay: Agonist activity at human muscarinic acetylcholine receptor M3 at 2 uM by cell based calcium flux assay; format: functional
[20] = target: 5-hydroxytryptamine receptor 2B (Homo sapiens) (UniProt P41595); assay: Agonist activity at human 5HT2B receptor at 2 uM by cell based calcium flux assay; format: functional
[21] = target: Vascular endothelial growth factor receptor 2 (Homo sapiens) (UniProt P35968); assay: Inhibition of human VEGFR2 at 2 uM
[22] = target: Histamine H1 receptor (Homo sapiens) (UniProt P35367); assay: Agonist activity at human histamine H1 receptor at 2 uM by cell based calcium flux assay; format: functional
[23] = target: Androgen receptor (Homo sapiens) (UniProt P10275); assay: Agonist activity at human androgen receptor at 2 uM by cell based nuclear translocation assay
[24] = target: T1, DNA topoisomerase 2-alpha (Homo sapiens, UniProt P11388); assay: Poison activity at human topoisomerase 2alpha in human Hela cells assessed as H2AX phosphorylation at 10 uM incubated for 90 mins by Western blot analysis; format: cell-based
[25] = target: Alpha-2A adrenergic receptor (Homo sapiens) (UniProt P08913); assay: Antagonist activity at human alpha-2A adrenergic receptor at 2 uM by cell based cAMP assay; format: functional
[26] = target: T1, DNA topoisomerase 2-alpha; assay: Poison activity at human topoisomerase 2alpha assessed as DNA cleavage by measuring linear DNA formation using supercoiled pBR322 DNA as substrate at 5 to 200 uM measured after 6 mins by agarose gel electrophoresis method; conditions: 0.1 h, dose 5-200 µM
[27] = target: Alpha-1A adrenergic receptor (Homo sapiens) (UniProt P35348); assay: Antagonist activity at human ADRA1A at 2 uM by cell based calcium flux assay; format: functional
[28] = target: T2, Voltage-gated potassium channel, IKs; KCNQ1(Kv7.1)/KCNE1(MinK) (Homo sapiens, UniProt P51787+P15382); assay: Inhibition of human KvLQT1/mink at 2 uM by thallium flux assay; format: protein-complex assay
[29] = target: Cannabinoid receptor 1 (Homo sapiens) (UniProt P21554); assay: Agonist activity at human cannabinoid receptor 1 at 2 uM by cell based cAMP assay; format: functional
[30] = target: Beta-2 adrenergic receptor (Homo sapiens) (UniProt P07550); assay: Antagonist activity at human beta-2 adrenergic receptor at 2 uM by cell based cAMP assay; format: functional
[31] = target: T2, Voltage-gated potassium channel, IKs; KCNQ1(Kv7.1)/KCNE1(MinK); assay: Activation of human KvLQT1/mink at 2 uM by thallium flux assay; format: protein-complex assay
[32] = target: Androgen receptor (Homo sapiens) (UniProt P10275); assay: Antagonist activity at human androgen receptor at 2 uM by cell based nuclear translocation assay
[33] = target: 5-hydroxytryptamine receptor 2A (Homo sapiens) (UniProt P28223); assay: Agonist activity at human 5HT2A receptor at 2 uM by cell based calcium flux assay; format: functional
[34] = target: 3',5'-cyclic-AMP phosphodiesterase 4D (Homo sapiens) (UniProt Q08499); assay: Inhibition of human PDE4D2 at 2 uM
[35] = target: Mu-type opioid receptor (Homo sapiens) (UniProt P35372); assay: Antagonist activity at human mu opioid receptor at 2 uM by cell based cAMP assay; format: functional
[36] = target: Endothelin-1 receptor (Homo sapiens) (UniProt P25101); assay: Antagonist activity at human endothelin 1 receptor at 2 uM by cell based calcium flux assay; format: functional
[37] = target: 5-hydroxytryptamine receptor 1B (Homo sapiens) (UniProt P28222); assay: Antagonist activity at human 5HT1B receptor at 2 uM by cell based cAMP assay; format: functional
[38] = target: Endothelin-1 receptor (Homo sapiens) (UniProt P25101); assay: Agonist activity at human endothelin 1 receptor at 2 uM by cell based calcium flux assay; format: functional
[39] = target: Sodium-dependent serotonin transporter (Homo sapiens) (UniProt P31645); assay: Inhibition of human serotonin transporter at 2 uM by cell based assay
[40] = target: 5-hydroxytryptamine receptor 1B (Homo sapiens) (UniProt P28222); assay: Agonist activity at human 5HT1B receptor at 2 uM by cell based cAMP assay; format: functional
[41] = target: Glucocorticoid receptor (Homo sapiens) (UniProt P04150); assay: Agonist activity at human glucocorticoid receptor at 2 uM by cell based assay
[42] = target: Kappa-type opioid receptor (Homo sapiens) (UniProt P41145); assay: Antagonist activity at human kappa opioid receptor at 2 uM by cell based cAMP assay; format: functional
[43] = target: D(2) dopamine receptor (Homo sapiens) (UniProt P14416); assay: Antagonist activity at human dopamine D2S receptor at 2 uM by cell based cAMP assay; format: functional
[44] = target: Mu-type opioid receptor (Homo sapiens) (UniProt P35372); assay: Agonist activity at human mu opioid receptor at 2 uM by cell based cAMP assay; format: functional

Sequence of Muscarinic acetylcholine receptor M3 (Homo sapiens) (P20309 whole entry, looked up): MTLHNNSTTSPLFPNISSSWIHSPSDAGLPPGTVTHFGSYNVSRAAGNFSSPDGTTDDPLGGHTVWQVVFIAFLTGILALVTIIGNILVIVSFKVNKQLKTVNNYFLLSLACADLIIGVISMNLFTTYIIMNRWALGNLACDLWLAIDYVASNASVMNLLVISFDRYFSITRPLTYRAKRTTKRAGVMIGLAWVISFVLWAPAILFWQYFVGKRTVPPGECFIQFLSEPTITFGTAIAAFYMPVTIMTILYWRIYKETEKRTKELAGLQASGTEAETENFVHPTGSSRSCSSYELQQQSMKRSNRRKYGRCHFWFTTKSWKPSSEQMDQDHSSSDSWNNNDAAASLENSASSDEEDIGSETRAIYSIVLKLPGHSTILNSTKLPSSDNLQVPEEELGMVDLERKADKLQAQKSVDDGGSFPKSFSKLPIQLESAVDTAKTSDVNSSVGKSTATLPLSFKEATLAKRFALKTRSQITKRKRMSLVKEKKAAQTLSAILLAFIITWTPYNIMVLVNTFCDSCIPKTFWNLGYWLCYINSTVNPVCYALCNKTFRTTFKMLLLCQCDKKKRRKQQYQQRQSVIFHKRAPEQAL
Sequence of Delta-type opioid receptor (Homo sapiens) (P41143 whole entry): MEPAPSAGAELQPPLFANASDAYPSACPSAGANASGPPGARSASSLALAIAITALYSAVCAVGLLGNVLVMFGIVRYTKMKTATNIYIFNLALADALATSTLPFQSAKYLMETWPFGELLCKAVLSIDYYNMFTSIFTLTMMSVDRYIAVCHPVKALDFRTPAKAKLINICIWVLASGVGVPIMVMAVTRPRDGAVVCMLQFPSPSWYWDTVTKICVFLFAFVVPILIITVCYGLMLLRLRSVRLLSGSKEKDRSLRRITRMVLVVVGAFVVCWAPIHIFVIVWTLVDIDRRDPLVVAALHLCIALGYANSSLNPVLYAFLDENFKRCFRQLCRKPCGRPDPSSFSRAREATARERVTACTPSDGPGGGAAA
Sequence of 5-hydroxytryptamine receptor 1B (Homo sapiens) (P28222 whole entry): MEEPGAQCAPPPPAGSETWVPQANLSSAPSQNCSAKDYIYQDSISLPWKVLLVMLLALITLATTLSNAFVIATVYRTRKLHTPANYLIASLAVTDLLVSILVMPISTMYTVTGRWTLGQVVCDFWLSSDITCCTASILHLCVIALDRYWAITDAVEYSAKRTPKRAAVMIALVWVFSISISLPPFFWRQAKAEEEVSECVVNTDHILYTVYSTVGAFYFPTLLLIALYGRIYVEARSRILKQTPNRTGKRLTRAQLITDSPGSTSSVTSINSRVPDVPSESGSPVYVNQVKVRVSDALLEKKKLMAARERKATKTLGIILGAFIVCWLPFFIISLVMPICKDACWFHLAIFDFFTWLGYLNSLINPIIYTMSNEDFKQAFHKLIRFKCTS
Sequence of Endothelin-1 receptor (Homo sapiens) (P25101 whole entry): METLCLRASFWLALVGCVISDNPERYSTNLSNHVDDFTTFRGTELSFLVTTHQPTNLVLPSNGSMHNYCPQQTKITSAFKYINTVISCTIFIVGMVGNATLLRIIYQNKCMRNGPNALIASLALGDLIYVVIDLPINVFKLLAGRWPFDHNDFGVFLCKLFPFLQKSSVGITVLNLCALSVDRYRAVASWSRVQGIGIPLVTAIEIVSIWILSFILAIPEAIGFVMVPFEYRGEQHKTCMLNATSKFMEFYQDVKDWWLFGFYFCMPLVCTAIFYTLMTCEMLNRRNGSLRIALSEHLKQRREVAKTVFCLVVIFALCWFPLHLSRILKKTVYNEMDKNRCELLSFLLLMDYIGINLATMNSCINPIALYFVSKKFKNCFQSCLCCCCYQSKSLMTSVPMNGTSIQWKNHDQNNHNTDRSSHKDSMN
Sequence of Beta-2 adrenergic receptor (Homo sapiens) (P07550 whole entry, looked up): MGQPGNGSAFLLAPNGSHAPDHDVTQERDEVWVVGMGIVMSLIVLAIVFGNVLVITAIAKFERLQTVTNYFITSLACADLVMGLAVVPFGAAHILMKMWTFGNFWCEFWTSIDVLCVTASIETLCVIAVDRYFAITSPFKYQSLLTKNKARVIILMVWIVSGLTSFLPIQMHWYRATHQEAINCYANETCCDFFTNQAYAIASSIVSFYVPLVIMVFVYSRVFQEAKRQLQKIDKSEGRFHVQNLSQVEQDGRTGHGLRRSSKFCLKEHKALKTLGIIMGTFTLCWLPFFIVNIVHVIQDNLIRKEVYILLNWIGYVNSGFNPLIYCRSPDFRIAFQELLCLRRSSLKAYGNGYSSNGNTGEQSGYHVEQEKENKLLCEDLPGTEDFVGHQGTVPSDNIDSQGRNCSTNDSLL
Sequence of Alpha-2A adrenergic receptor (Homo sapiens) (P08913 whole entry): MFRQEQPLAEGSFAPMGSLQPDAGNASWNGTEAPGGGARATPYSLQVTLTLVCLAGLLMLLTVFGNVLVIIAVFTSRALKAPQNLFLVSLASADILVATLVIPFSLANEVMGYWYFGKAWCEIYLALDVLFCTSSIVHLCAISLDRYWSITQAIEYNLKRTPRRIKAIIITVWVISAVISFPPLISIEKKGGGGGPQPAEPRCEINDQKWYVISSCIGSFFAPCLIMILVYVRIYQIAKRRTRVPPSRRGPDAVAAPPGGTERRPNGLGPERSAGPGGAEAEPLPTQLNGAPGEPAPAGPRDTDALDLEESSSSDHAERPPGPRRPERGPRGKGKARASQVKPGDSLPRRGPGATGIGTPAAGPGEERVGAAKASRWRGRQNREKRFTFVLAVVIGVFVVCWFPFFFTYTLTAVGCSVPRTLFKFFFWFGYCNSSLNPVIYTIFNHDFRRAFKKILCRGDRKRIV
T2 sequence (P51787 whole entry): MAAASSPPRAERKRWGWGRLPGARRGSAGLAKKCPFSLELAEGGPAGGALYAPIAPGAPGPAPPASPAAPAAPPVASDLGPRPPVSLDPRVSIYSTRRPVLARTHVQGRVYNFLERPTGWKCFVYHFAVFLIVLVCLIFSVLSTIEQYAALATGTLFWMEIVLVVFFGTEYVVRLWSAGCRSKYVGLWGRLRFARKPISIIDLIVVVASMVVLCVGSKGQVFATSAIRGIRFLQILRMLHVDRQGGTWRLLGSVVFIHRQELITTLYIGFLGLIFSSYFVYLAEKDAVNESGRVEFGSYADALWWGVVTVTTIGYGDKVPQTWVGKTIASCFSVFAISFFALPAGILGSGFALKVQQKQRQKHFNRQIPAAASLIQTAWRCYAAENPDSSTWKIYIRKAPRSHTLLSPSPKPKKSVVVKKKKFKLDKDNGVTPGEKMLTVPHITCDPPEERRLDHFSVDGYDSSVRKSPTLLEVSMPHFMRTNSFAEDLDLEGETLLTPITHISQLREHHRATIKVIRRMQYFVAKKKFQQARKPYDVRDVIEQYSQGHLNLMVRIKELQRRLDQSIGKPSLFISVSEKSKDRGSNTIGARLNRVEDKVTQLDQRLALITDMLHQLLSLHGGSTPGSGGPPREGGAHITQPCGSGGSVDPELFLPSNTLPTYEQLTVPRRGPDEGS
Sequence of Mu-type opioid receptor (Homo sapiens) (P35372 whole entry): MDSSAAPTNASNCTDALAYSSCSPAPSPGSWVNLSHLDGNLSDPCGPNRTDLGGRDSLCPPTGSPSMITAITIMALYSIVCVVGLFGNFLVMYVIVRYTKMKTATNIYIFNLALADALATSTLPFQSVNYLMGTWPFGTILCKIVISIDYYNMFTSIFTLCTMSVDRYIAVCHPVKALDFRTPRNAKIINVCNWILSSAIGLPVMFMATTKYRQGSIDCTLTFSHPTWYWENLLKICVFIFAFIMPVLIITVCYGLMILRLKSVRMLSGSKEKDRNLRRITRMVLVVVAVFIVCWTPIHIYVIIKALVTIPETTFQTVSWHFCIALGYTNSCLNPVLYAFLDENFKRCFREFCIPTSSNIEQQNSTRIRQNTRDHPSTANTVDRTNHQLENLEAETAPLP
Sequence of Alpha-1A adrenergic receptor (Homo sapiens) (P35348 whole entry): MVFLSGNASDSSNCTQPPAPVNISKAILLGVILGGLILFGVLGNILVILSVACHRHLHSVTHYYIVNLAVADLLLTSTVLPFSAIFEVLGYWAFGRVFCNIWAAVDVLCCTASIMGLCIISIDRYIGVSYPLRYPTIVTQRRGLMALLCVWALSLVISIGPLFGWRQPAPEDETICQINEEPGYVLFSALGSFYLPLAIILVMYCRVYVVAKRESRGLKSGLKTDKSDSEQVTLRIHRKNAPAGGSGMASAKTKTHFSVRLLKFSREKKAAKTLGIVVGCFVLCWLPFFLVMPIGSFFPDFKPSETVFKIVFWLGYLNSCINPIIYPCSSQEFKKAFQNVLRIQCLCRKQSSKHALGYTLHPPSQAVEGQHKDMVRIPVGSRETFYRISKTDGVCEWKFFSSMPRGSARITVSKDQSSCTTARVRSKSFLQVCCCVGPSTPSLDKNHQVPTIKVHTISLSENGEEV
Sequence of Cholecystokinin receptor type A (Homo sapiens) (P32238 whole entry): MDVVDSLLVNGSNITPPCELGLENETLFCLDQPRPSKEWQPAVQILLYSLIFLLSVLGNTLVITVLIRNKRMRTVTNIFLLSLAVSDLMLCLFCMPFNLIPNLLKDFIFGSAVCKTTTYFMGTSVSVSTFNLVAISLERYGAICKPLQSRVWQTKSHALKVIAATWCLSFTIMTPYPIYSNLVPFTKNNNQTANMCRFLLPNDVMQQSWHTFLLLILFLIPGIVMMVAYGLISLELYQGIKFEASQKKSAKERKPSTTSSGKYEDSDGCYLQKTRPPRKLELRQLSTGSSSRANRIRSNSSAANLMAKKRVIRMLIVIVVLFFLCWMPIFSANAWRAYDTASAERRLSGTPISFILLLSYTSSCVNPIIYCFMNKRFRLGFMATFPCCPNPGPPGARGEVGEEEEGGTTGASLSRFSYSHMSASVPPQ

**Q.** For `CN(C)c1ccc(Nc2nc(-c3ccncc3)nc3c2CC(N)CC3)cc1` (centres undefined), which Activity [1] is on record?
**A.** Its Activity is “inactive”.

**Q.** What about the Activity [2] of the same molecule?
**A.** The Activity was “inactive”.

**Q.** What about the Activity [3] of the same molecule?
**A.** Its Activity is “inactive”.

**Q.** What about the Activity [4] of the same molecule?
**A.** Its Activity is “inactive”.

**Q.** And the Activity [5]?
**A.** The Activity was “inactive”.

**Q.** What about the inhibition [6] of the same molecule?
**A.** Its inhibition is “inactive”.

**Q.** What about the inhibition [7] of the same molecule?
**A.** The inhibition was “inactive”.

**Q.** What about the “inhibition (INH)” value [8] of the same molecule?
**A.** Its value is “Not Active”.

**Q.** What about the Activity [9] of the same molecule?
**A.** The Activity was “Not Active”.

**Q.** What about the Activity [10] of the same molecule?
**A.** The Activity was “inactive”.

**Q.** And the Activity [11]?
**A.** Its Activity is “inactive”.

**Q.** And the inhibition [12]?
**A.** The inhibition was “inactive”.

**Q.** And the Activity [13]?
**A.** The Activity was “inactive”.

**Q.** And the Activity [14]?
**A.** The Activity was “inactive”.

**Q.** And the inhibition [15]?
**A.** The inhibition was “inactive”.

**Q.** And the Activity [16]?
**A.** Its Activity is “inactive”.

**Q.** What about the Activity [17] of the same molecule?
**A.** Its Activity is “inactive”.

**Q.** What about the Drug uptake [18] of the same molecule?
**A.** The Drug uptake was “Active”.

**Q.** And the Activity [19]?
**A.** The Activity was “inactive”.

**Q.** What about the Activity [20] of the same molecule?
**A.** Its Activity is “inactive”.

**Q.** And the inhibition [21]?
**A.** The inhibition was “inactive”.

**Q.** What about the Activity [22] of the same molecule?
**A.** Its Activity is “inactive”.

**Q.** What about the Activity [23] of the same molecule?
**A.** Its Activity is “inactive”.

**Q.** What about the Activity [24] of the same molecule?
**A.** The Activity was “Not Active”.

**Q.** What about the Activity [25] of the same molecule?
**A.** Its Activity is “inactive”.

**Q.** What about the Activity [26] of the same molecule?
**A.** Its Activity is “Not Active”.

**Q.** What about the Activity [27] of the same molecule?
**A.** The Activity was “inactive”.

**Q.** What about the “inhibition (INH)” value [28] of the same molecule?
**A.** The value was “Not Active”.

**Q.** And the Activity [29]?
**A.** Its Activity is “inactive”.

**Q.** What about the Activity [30] of the same molecule?
**A.** Its Activity is “inactive”.

**Q.** And the Activity [31]?
**A.** Its Activity is “Not Active”.

**Q.** And the Activity [32]?
**A.** Its Activity is “inactive”.

**Q.** What about the Activity [33] of the same molecule?
**A.** Its Activity is “inactive”.

**Q.** And the inhibition [34]?
**A.** Its inhibition is “inactive”.

**Q.** And the Activity [35]?
**A.** The Activity was “inactive”.

**Q.** What about the Activity [36] of the same molecule?
**A.** Its Activity is “inactive”.

**Q.** And the Activity [37]?
**A.** Its Activity is “inactive”.

**Q.** And the Activity [38]?
**A.** Its Activity is “inactive”.

**Q.** And the inhibition [39]?
**A.** Its inhibition is “inactive”.

**Q.** What about the Activity [40] of the same molecule?
**A.** The Activity was “inactive”.

**Q.** And the Activity [41]?
**A.** The Activity was “inactive”.

**Q.** What about the Activity [42] of the same molecule?
**A.** Its Activity is “inactive”.

**Q.** What about the Activity [43] of the same molecule?
**A.** Its Activity is “inactive”.

**Q.** And the Activity [44]?
**A.** Its Activity is “inactive”.
